Results published in PubChem BioAssay AID248 (DTP/NCI, 2004).
Where “and” joins values, the source holds several entries; their conditions need not be identical. Equal values may be shown once. Inconclusive results and toxic doses are left out. Cut-off read from the data, not from the text of the source: active = T/C of 150% or more; inactive = T/C below 125%.

Test system: L1210 leukemia ip in BDF1 mice, survival T/C
Experiment: NCI In Vivo Anticancer Drug Screen. Data for tumor model L1210 Leukemia (intraperitoneal) in B6D2F1 (BDF1) mice
Conditions: endpoint: mean survival time, higher = longer survival
How it was run: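 Transplanted-tumor mice were given test agent; controls received vehicle only. Survival readings from the two groups were divided (treated over control).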

[1] = dose: 100.0 mg/kg/injection, schedule: Q01DX009 (ip), vehicle: Klucel (hydroxypropylcellulose) (HPC)
[2] = dose: 100.0 mg/kg/injection, schedule: Q04DX003 (ip), vehicle: Klucel (hydroxypropylcellulose) (HPC)
[3] = dose: 200.0 mg/kg/injection, schedule: Q01DX009 (ip), vehicle: Klucel (hydroxypropylcellulose) (HPC)
[4] = dose: 200.0 mg/kg/injection, schedule: Q04DX003 (ip), vehicle: Klucel (hydroxypropylcellulose) (HPC)
[5] = dose: 400.0 mg/kg/injection, schedule: Q01DX009 (ip), vehicle: Klucel (hydroxypropylcellulose) (HPC)
[6] = dose: 400.0 mg/kg/injection, schedule: Q04DX003 (ip), vehicle: Klucel (hydroxypropylcellulose) (HPC)
[7] = dose: 100.0 mg/kg/injection, schedule: Q01DX009 (ip), vehicle: saline with Tween-80
[8] = dose: 100.0 mg/kg/injection, schedule: Q04DX002 (ip), vehicle: saline with Tween-80
[9] = dose: 200.0 mg/kg/injection, schedule: Q01DX009 (ip), vehicle: saline with Tween-80
[10] = dose: 200.0 mg/kg/injection, schedule: Q04DX002 (ip), vehicle: saline with Tween-80
[11] = dose: 400.0 mg/kg/injection, schedule: Q01DX009 (ip), vehicle: saline with Tween-80
[12] = dose: 400.0 mg/kg/injection, schedule: Q04DX002 (ip), vehicle: saline with Tween-80
[13] = dose: 100.0 mg/kg/injection, schedule: Q01DX001 (ip), vehicle: saline
[14] = dose: 200.0 mg/kg/injection, schedule: Q01DX001 (ip), vehicle: saline
[15] = dose: 400.0 mg/kg/injection, schedule: Q01DX001 (ip), vehicle: saline

Measured: T/C

CCOc1ccc(/C=C2\N=C(c3ccccc3)OC2=O)cc1
inactive: [1] 98 % of control | [2] 100 % of control | [3] 88 % of control | [4] 100 % of control | [5] 93 % of control | [6] 98 % of control

NS(=O)(=O)c1ccc(NC(=S)NC(=O)c2ccc(Cl)cc2Cl)cc1
inactive: [7] 89 % of control and 90 % of control | [8] 101 % of control and 92 % of control | [9] 96 % of control and 89 % of control | [10] 97 % of control and 90 % of control | [11] 93 % of control and 89 % of control | [12] 86 % of control and 92 % of control

CC(=O)N1CCc2cc(N)ccc21
inactive: [9] 103 % of control

CC(=O)OC1CC23CCC(=O)C2(CC3)C1 (stereo unspecified)
inactive: [8] 99 % of control | [10] 111 % of control | [12] 99 % of control

NC(=S)N1N=C(c2cccc([N+](=O)[O-])c2)CCC1=O
inactive: [7] 92 % of control | [9] 92 % of control | [11] 101 % of control

CC12CCC(O)CC1CCC1C2CCC2(C)C(c3ccc(=O)oc3)CC3OC312 (stereo unspecified)
inactive: dose: 50.0 mg/kg/injection, schedule: Q01DX001 (sc), vehicle: steriod suspending solution 105 % of control | dose: 100.0 mg/kg/injection, schedule: Q01DX001 (sc), vehicle: steriod suspending solution 105 % of control | dose: 200.0 mg/kg/injection, schedule: Q01DX001 (sc), vehicle: steriod suspending solution 96 % of control | dose: 400.0 mg/kg/injection, schedule: Q01DX001 (sc), vehicle: steriod suspending solution 100 % of control

O=C(NCc1ccco1)NCc1ccco1
inactive: dose: 25.0 mg/kg/injection, schedule: Q01DX009 (ip), vehicle: Klucel (hydroxypropylcellulose) (HPC) 91 % of control | dose: 25.0 mg/kg/injection, schedule: Q04DX003 (ip), vehicle: Klucel (hydroxypropylcellulose) (HPC) 103 % of control | dose: 50.0 mg/kg/injection, schedule: Q01DX009 (ip), vehicle: Klucel (hydroxypropylcellulose) (HPC) 96 % of control | dose: 50.0 mg/kg/injection, schedule: Q04DX003 (ip), vehicle: Klucel (hydroxypropylcellulose) (HPC) 97 % of control | [2] 98 % of control and 101 % of control

CC12OC1C(=O)c1ccccc1C2=O (stereo unspecified)
inactive: dose: 5.0 mg/kg/injection, schedule: Q04DX003 (ip), vehicle: Klucel (hydroxypropylcellulose) (HPC) 103 % of control | dose: 10.0 mg/kg/injection, schedule: Q04DX003 (ip), vehicle: Klucel (hydroxypropylcellulose) (HPC) 97 % of control

O=C(OCC(O)C(O)C(O)C(SCc1ccccc1)SCc1ccccc1)c1ccc([N+](=O)[O-])cc1 (stereo unspecified)
inactive: [13] 93 % of control | [14] 94 % of control | [15] 94 % of control

O=C(CCCN1CCC2(CC1)C(=O)NCN2c1ccccc1)c1cccs1
inactive: dose: 3.13 mg/kg/injection, schedule: Q01DX009 (ip), vehicle: saline with Tween-80 95 % of control | dose: 6.25 mg/kg/injection, schedule: Q01DX009 (ip), vehicle: saline with Tween-80 94 % of control | dose: 6.25 mg/kg/injection, schedule: Q04DX003 (ip), vehicle: saline with Tween-80 102 % of control | dose: 12.5 mg/kg/injection, schedule: Q01DX009 (ip), vehicle: saline with Tween-80 89 % of control | dose: 12.5 mg/kg/injection, schedule: Q04DX003 (ip), vehicle: saline with Tween-80 95 % of control

NCCCCC(N)C(=O)NC1C(CO)OC(n2cnc3c(N)ncnc32)C1O (stereo unspecified)
inactive: [13] 101 % of control | [14] 105 % of control | [15] 101 % of control

COc1cc(C2=N/C(=C\c3cc(Br)cc(Br)c3O)C(=O)O2)cc(OC)c1OC
inactive: dose: 25.0 mg/kg/injection, schedule: Q04DX002 (ip), vehicle: saline with Tween-80 97 % of control | dose: 50.0 mg/kg/injection, schedule: Q04DX002 (ip), vehicle: saline with Tween-80 90 % of control | [8] 90 % of control | [10] 95 % of control | [12] 95 % of control

S=c1oc2cccc3c2n1CCC3
inactive: [7] 113 % of control | dose: 100.0 mg/kg/injection, schedule: Q04DX003 (ip), vehicle: saline with Tween-80 97 % of control | [9] 101 % of control | dose: 200.0 mg/kg/injection, schedule: Q04DX003 (ip), vehicle: saline with Tween-80 107 % of control | [11] 98 % of control | dose: 400.0 mg/kg/injection, schedule: Q04DX003 (ip), vehicle: saline with Tween-80 97 % of control

COC(C/C=C\C=C\CC/C=C/CC(C)/C=C/C(=C\C(=O)O)CC(=O)O)/C(C)=C\C=C(/C)C(=O)O (stereo unspecified)
inactive: dose: 0.5 mg/kg/injection, schedule: Q01DX001 (ip), vehicle: saline 101 % of control | dose: 1.0 mg/kg/injection, schedule: Q01DX001 (ip), vehicle: saline 102 % of control | dose: 2.0 mg/kg/injection, schedule: Q01DX001 (ip), vehicle: saline 102 % of control | dose: 4.0 mg/kg/injection, schedule: Q01DX001 (ip), vehicle: saline 104 % of control | dose: 8.0 mg/kg/injection, schedule: Q01DX001 (ip), vehicle: saline 101 % of control

COc1c(C)cccc1[N+](=O)[O-]
inactive: [1] 104 % of control | [2] 98 % of control | [3] 101 % of control | [4] 104 % of control | [5] 101 % of control | [6] 101 % of control

CC(Nc1ccccc1)(C(N)=O)c1ccccc1 (stereo unspecified)
inactive: dose: 100.0 mg/kg/injection, schedule: Q01DX001 (ip), vehicle: saline sonified 96 % of control | dose: 200.0 mg/kg/injection, schedule: Q01DX001 (ip), vehicle: saline sonified 100 % of control | dose: 400.0 mg/kg/injection, schedule: Q01DX001 (ip), vehicle: saline sonified 97 % of control

Nc1nc(-c2ccccc2)nc2nc3[nH]c(=O)[nH]c(=O)c3nc12
inactive: dose: 100.0 mg/kg/injection, schedule: Q04DX002 (ip), vehicle: Klucel (hydroxypropylcellulose) (HPC) 94 % of control | dose: 200.0 mg/kg/injection, schedule: Q04DX002 (ip), vehicle: Klucel (hydroxypropylcellulose) (HPC) 102 % of control | dose: 400.0 mg/kg/injection, schedule: Q04DX002 (ip), vehicle: Klucel (hydroxypropylcellulose) (HPC) 98 % of control

CN(C)N=Nc1ccc2ncccc2c1[N+](=O)[O-]
inactive: dose: 100.0 mg/kg/injection, schedule: Q01DX001 (ip), vehicle: other 105 % of control | dose: 200.0 mg/kg/injection, schedule: Q01DX001 (ip), vehicle: other 103 % of control
